The text below walks through data of publication PMC10780766, “From Bench to Bedside: Patient-Oriented Radiopharmaceutical Development in Nuclear Medicine Based on the Example of [^89Zr]Zr-PSMA-DFO” (Molecules, 2023).

Like-named read-outs stand apart in the source and are kept apart here.

Data set [1] relates to PSMA binding sites (PSMA-positive LNCaP cell lines). Also on record: method as in PMID 34370181. The following applies: LNCaP cells; cited from earlier work.
Data set [2] relates to PSMA (prostate-specific membrane antigen) on prostate cancer cells. Also on record: method as in PMID 34370181. The following applies: cited from earlier work.
Data set [3] shares this test system. Also on record: method as in PMID 34370181. The following applies: cited from earlier work. This is another data set of the same source.
Data set [4] has as its system LNCaP tumor xenograft. Also on record: method as in PMID 34370181. The conditions noted are these: LNCaP tumor xenografts, n = 5, cited from earlier work.
Data set [5] deals with LNCaP tumors. The arrangement: method as in PMID 34370181. The conditions noted are these: cited from earlier work.
Details of data set [6]: method as in PMID 34370181. The following applies: up to 7 days at 37 °C; cited from earlier work.
The subject of data set [7] is PSMA-positive lesions. The arrangement: method as in PMID 34326129. The conditions noted are these: cited from earlier work.
A short description of data set [8]: Storage of iron-free precursor in aqueous solution, then labeling, cell binding and internalization. The class given is physicochemical. The conditions noted are these: storage at 5 °C in an aqueous solution for 6 months. From the text:
Such synthesis modules have been specifically designed to enable the versatile and efficient routine production of various radiopharmaceuticals while adhering to GMP requirements. The concept of disposable cassettes pursued in this approach allows the user to label different radionuclides on the same synthesis device without the risk of cross-contamination. The disposable cassettes include all necessary vessels, reagents, and purification columns. The automated process concludes with a final sterile filtration, including a filter integrity test. Iron removal should therefore take place before the actual labeling process. We wanted to verify whether it is possible to establish a stock of an iron-free PSMA-DFO precursor, stored in an aqueous solution at 4 °C in the refrigerator, and to determine its shelf life. This was done by investigating whether the iron-free precursor can be labeled with zirconium-89 after several months of storage without compromising the yield, cell binding, and internalization.

For `COc1nc([18F])ccc1C(=O)NCCCCC(NC(=O)NC(CCC(=O)O)C(=O)O)C(=O)O` (stereo not shown) [[^18F]F-JK-PSMA 7], in data set [1], the Bmax is on record as 2702 ± 61 fmol/10^6 Cells. Also, the “Specific binding as a percentage of the total cellular activity” value (“Specific binding as a percentage” for short) in data set [2] (0.5 h) is reported as 23.8 ± 0.6%; in data set [2] (1 h), 32.6 ± 0.4%; in data set [2] (2 h) it was 38.8 ± 1.3%; in data set [2] (3 h), 45.2 ± 1.9%; in data set [2] (5 h), 45.8 ± 0.4%. In addition, the “Specific internalization as a percentage of the total cellular activity” value (shortened to “Specific internalization as a percentage”) in data set [3] (0.5 h) is reported as 4.7 ± 0.4%; in data set [3] (1 h), 11.1 ± 0.7%; in data set [3] (2 h), 17.2 ± 1.3%; in data set [3] (3 h), 20.8 ± 0.6%; in data set [3] (5 h), 21.8 ± 0.3%. For the same molecule, the tumor/blood ratio in data set [4] (4 h after i.v. injection) was 175 ± 30. The tumor/muscle ratio in data set [4] (4 h after i.v. injection) is reported as 114 ± 14.

Turning to `CC(=O)N([O-])CCCCCNC(=O)CCC(=O)N([O-])CCCCCNC(=O)CCC(=O)N([O-])CCCCCNC(=O)CCC(=O)NCC1CCC(C(=O)NC(Cc2ccc3ccccc3c2)C(=O)NCCCCC(NC(=O)NC(CCC(=O)O)C(=O)O)C(=O)O)CC1.[89Zr+4]` (stereo not shown) [[^89Zr]Zr-PSMA-DFO], in data set [1], the Bmax is given as 1428 ± 42 fmol/10^6 Cells. In addition, in data set [1], the Kd is 4.97 ± 0.57 nM. Moreover, the “Specific binding as a percentage” value is 29.1 ± 2.1% in data set [2] (0.5 h); 38.5 ± 2.3% in data set [2] (1 h); 46.5 ± 1.3% in data set [2] (2 h); 48.8 ± 1.0% in data set [2] (3 h); 49.4 ± 1.3% in data set [2] (5 h). Also, the “Specific internalization as a percentage” value in data set [3] (0.5 h) was 9.5 ± 0.6%; in data set [3] (1 h) it was 15.3 ± 1.0%; in data set [3] (2 h) it was 22.3 ± 1.0%; in data set [3] (3 h), 24.4 ± 0.6%; in data set [3] (5 h), 30.4 ± 1.3%. In addition, in data set [4] (24 h after i.v. injection), the tumor/blood ratio is recorded as 309 ± 89. The tumor/muscle ratio in data set [4] (24 h after i.v. injection) is recorded as 450 ± 38. Further, in data set [5] (PET scans up to 48 h after injection), the “Tumor visualization at later time points” value is given as “clear tumor visualization”. In data set [5] (after 48 h, mice with LNCaP tumor xenografts), the “Radioactive background radiation in the kidneys and bladder” value is recorded as “minimal”. Besides, the “Ability to visualize tumors compared with [68Ga]Ga-PSMA-11 or [18F]F-JK-PSMA-7” value in data set [5] (early time points (1 h after injection)) is “similar”. The “Stability in human serum” value in data set [6] is “very high stability”. For the same molecule, the “Stability in phosphate-buffered saline (PBS)” value in data set [6] is on record as “very high stability”. Besides, the “Detected lesions whose validity was supported (histology, follow-up after radiation therapy, additional imaging)” value in data set [7] is listed as 14 out of 15. In addition, the “Level of radioactivity in the 15 lesions (SUVmax) versus the original PET scans” value in data set [7] is “significantly higher”. In data set [7] (in 8 out of 14 patients), the “Number of PSMA-positive lesions detected” value is given as 15. In data set [7] (patients with BCR and initially negative PET scans using the usual tracers), the “Patients in whom PSMA-positive lesions were detected” value was 8 out of 14.

Regarding `CC(=O)N(O)CCCCCNC(=O)CCC(=O)N(O)CCCCCNC(=O)CCC(=O)N(O)CCCCCNC(=O)CCC(=O)NCC1CCC(C(=O)NC(Cc2ccc3ccccc3c2)C(=O)NCCCCC(NC(=O)NC(CCC(=O)O)C(=O)O)C(=O)O)CC1` (stereo not shown) [N-sucDFO-PSMA], the “Chemical reactivity, specific binding and internalization after storage” value in data set [8] is reported as “remained unaffected”.

With `O=C([O-])CN(CCN(CC(=O)[O-])Cc1cc(CCC(=O)NCCCCCC(=O)NCCCC[C@H](NC(=O)N[C@@H](CCC(=O)O)C(=O)O)C(=O)O)ccc1[O-])Cc1cc(CCC(=O)O)ccc1[O-].[68Ga+3].[OH3+]` [[^68Ga]Ga-PSMA 11], in data set [1], the Bmax is 1746 ± 53 fmol/10^6 Cells. Besides, the Kd in data set [1] is 5.15 ± 0.6 nM. Moreover, the “Specific binding as a percentage” value in data set [2] (0.5 h) is 27.7 ± 0.7%; in data set [2] (1 h) it was 35.3 ± 3.1%; in data set [2] (2 h), 42.0 ± 1.2%; in data set [2] (3 h), 46.3 ± 2.1%; in data set [2] (5 h), 48.3 ± 1.2%. In addition, the “Specific internalization as a percentage” value in data set [3] (0.5 h) is on record as 8.0 ± 0.4%; in data set [3] (1 h), 14.0 ± 1.9%; in data set [3] (2 h) it was 20.3 ± 1.5%; in data set [3] (3 h) it was 23.3 ± 0.8%; in data set [3] (5 h), 27.4 ± 1.6%. Moreover, the tumor/blood ratio in data set [4] (4 h after i.v. injection) was 112 ± 57. The tumor/muscle ratio in data set [4] (4 h after i.v. injection) is 58 ± 36.

On to `COc1nc(F)ccc1C(=O)NCCCCC(NC(=O)NC(CCC(=O)O)C(=O)O)C(=O)O` (stereo not shown) [[^18F]F-JK-PSMA 7], for which the Kd in data set [1] was 5.07 ± 0.45 nM.

On to [^177Lu]Lu-PSMA 617, for which the Bmax in data set [1] is reported as 2021 ± 66 fmol/10^6 Cells. In data set [1], the Kd is 5.81 ± 0.71 nM. Besides, the “Specific binding as a percentage” value in data set [2] (0.5 h) is recorded as 16.0 ± 0.2%; in data set [2] (1 h), 19.7 ± 1.1%; in data set [2] (2 h), 30.4 ± 1.0%; in data set [2] (3 h) it was 35.5 ± 1.0%; in data set [2] (5 h) it was 40.7 ± 2.4%. The “Specific internalization as a percentage” value in data set [3] (0.5 h) is 4.1 ± 0.1%; in data set [3] (1 h) it was 6.7 ± 0.1%; in data set [3] (2 h), 12.8 ± 1.3%; in data set [3] (3 h), 16.9 ± 0.2%; in data set [3] (5 h) it was 22.9 ± 0.9%.

A word on the Kd: it is the free concentration of one partner at which half of the binding sites on the other are occupied at equilibrium, for simple one-to-one binding.
